Assay results: patent US20260284043A1, “COMPOUNDS FOR UPREGULATING UTROPHIN LEVELS IN MUSCLE CELLS AND METHOD OF APPLICATION THEREOF” (Peptris Technologies Private Limited, priority 2023, published 2026)

Columns and labels:
[1] = tested on: Utrophin; test: Utrophin upregulation (mRNA fold change, RT-PCR) in differentiated C2C12 myoblast cells; format: cell-based, mouse; details: 24 hours; for fold change of utrophin: C2C12 myoblast cells differentiated seven days, 10 μM, FIG. 1
Description: C2C12 myoblast cells are seeded in the well plate with a growth medium (10% FBS and DMEM). After they reached 70% confluence, the cells are added to the differentiation medium (2% HS and DMEM) and differentiated for seven days. Stock solutions are prepared for Sitagliptin and other DPP-IV inhibitors viz., Melogliptin, Linagliptin, Vildagliptin, and Teneligliptin in DMSO. The cells are treated with a final concentration of 10 μM stock solution for 24 hours. RNA isolation is carried out using the Qiagen assay kit and quantified using NanodropRT-PCR for Utrophin Upregulation.
Using the same protocol for Example 1, C2C 12 myoblast cells are treated with sitagliptin for 24 hours. Ezutromid is a known utrophin up-regulator and used as a positive control. RNA isolation and RT-PCR are done to quantify the fold change in utrophin mRNA expression. FIG. 2 presents the fold change in mRNA expression of Utrophin on C2C12 mouse skeletal muscle myoblasts at 10 uM sitagliptin compared to 10 uM Ezutromid.

[2] = tested on: D2.mdx mice; test: Serum Creatinine Kinase level in D2.mdx mice after treadmill test; format: in vivo, mouse; details: 50 mg/kg p.o. q.d., 28 days, measured within 30 minutes after treadmill test, FIG. 8
Description: All the functional experimental parameters are evaluated in mdx background wild-type mice and in D2.mdx mice (D2.B10-DMD mdx/J mice procured from Jackson laboratories (Strain #013141), Bar Harbor, Maine (ME), USA 04609. The test item, Sitagliptin 50 mg/kg, is orally (p.o.) administered once daily (q.d.) at a dose volume of 10 mL/kg. Sitagliptin suspended in formulation containing 0.1% Tween 20 and 0.5% Carboxymethyl cellulose (CMC) is administered once daily for 28 days via the oral route. The wild-type control and mdx control groups received the vehicle (0.5% Carboxy methyl cellulose (CMC) containing 0.1% Tween 20) alone. […] All three group mice (Wild-type, DMD-Control & DMD-Sitagliptin) underwent functional tests at week 0 (Basal-Day 0), week 2 (Day 14) and at the end of the study (week 4 or Day 28). […] Blood samples are collected for Creatine kinase (CK) analysis 30 min after Treadmill functional test on Day 0, 14 & Day 28. The efficacy of Sitagliptin is evaluated by comparing the functional test parameters and serum CK levels of the treated group with that of the mdx-control group in comparison to the basal value of Wild-type group. […] Treadmill, grip strength, hanging, rotarod, and creatine kinase tests are recorded on day 0, day 14 and day 28. […] Serum Creatinine Kinase level is measured within 30 minutes after the mice are subjected to Treadmill tests.

[3] = tested on: D2.mdx mice; test: Grip strength test in D2.mdx mice; format: in vivo, mouse; details: 50 mg/kg p.o. q.d., before treadmill stress, compared with wild type mice, FIG. 5A
Description: (§1) All the functional experimental parameters are evaluated in mdx background wild-type mice and in D2.mdx mice (D2.B10-DMD mdx/J mice procured from Jackson laboratories (Strain #013141), Bar Harbor, Maine (ME), USA 04609. The test item, Sitagliptin 50 mg/kg, is orally (p.o.) administered once daily (q.d.) at a dose volume of 10 mL/kg. Sitagliptin suspended in formulation containing 0.1% Tween 20 and 0.5% Carboxymethyl cellulose (CMC) is administered once daily for 28 days via the oral route. The wild-type control and mdx control groups received the vehicle (0.5% Carboxy methyl cellulose (CMC) containing 0.1% Tween 20) alone. Body weight of the study animals is recorded before the study (pre-dose) and twice weekly/daily throughout the study. Animals are also monitored for clinical signs, mortality, and morbidity. […] Muscle function is assessed through grip strength test using a Grip strength meter (Orchid Scientific, Model No.: […], India), hanging test, treadmill running, and rotarod test (Orchid Scientific, India) in response to Vehicle and Sitagliptin (50 mg/kg, p.o.) treatments. […] The efficacy of Sitagliptin is evaluated by comparing the functional test parameters and serum CK levels of the treated group with that of the mdx-control group in comparison to the basal value of Wild-type group. […]

[4] = tested on: D2.mdx mice; test: Hanging test in D2.mdx mice; format: in vivo, mouse; details: 50 mg/kg p.o. q.d., irrespective of treadmill stress, compared with wild type mice, FIGS. 6A and 6B
Description: as §1

[5] = tested on: D2.mdx mice; test: 28th day summary of functional tests in D2.mdx mouse models; format: in vivo; details: 50 mg/kg p.o. q.d., day 28, vs DMD disease control mice, FIG. 9A-9F
Description: as §1

[6] = tested on: D2.mdx mice; test: Rotarod test in D2.mdx mice; format: in vivo, mouse; details: 50 mg/kg p.o. q.d., 28 days, FIG. 7
Description: as §1

[7] = tested on: D2.mdx mice; test: Treadmill test in D2.mdx mice; format: in vivo, mouse; details: 50 mg/kg p.o. q.d., 28 days, vs DMD-Control
Description: as §1

N#C[C@@H]1CCCN1C(=O)CNC12CC3CC(CC(O)(C3)C1)C2 [Vildagliptin, (S)-1-[2-(3-Hydroxyadamantan-1-ylamino)acetyl]pyrrolidine-2-carbonitrile]
fold change of utrophin [1]: capable of upregulating utrophin levels

N#C[C@@H]1C[C@H](F)CN1C(=O)CN[C@@H]1CC[C@H](Cn2cncn2)C1 [Melogliptin, (2S,4S)-4-fluoro-1-[2-[[(1R,3S)-3-(1,2,4-triazol-1-ylmethyl)cyclopentyl]amino]acetyl]pyrrolidine-2 carbonitrile]
fold change of utrophin [1]: capable of upregulating utrophin levels

N[C@@H](CC(=O)N1CCn2c(nnc2C(F)(F)F)C1)Cc1cc(F)c(F)cc1F [Sitagliptin, (R)-4-oxo-4-[3-(trifluoromethyl)-5,6-dihydro[1,2,4]triazolo[4,3-a]pyrazin-7(8H)-yl]-1-(2,4,5-trifluorophenyl)butan-2-amine]
fold change in mRNA expression of Utrophin compared to Ezutromid ([1]; C2C12 mouse skeletal muscle myoblasts, 10 uM sitagliptin vs 10 uM Ezutromid (positive control), FIG. 2): superior upregulation of utrophin compared Ezutromid
fold change of utrophin [1]: capable of upregulating utrophin levels
Serum Creatinine Kinase levels [2]: significant reductions
normalized grip strength pre-treadmill [3]: could grip as well as the wild type mice
hanging latency pre- and post-treadmill [4]: perform comparably with wild type mice
all functional parameters (distance travelled, time to exhaust, grip strength, hanging test), 28th day summary [5]: robust improvement in all the functional parameters
latency to fall (rotarod) [6]: sustained improvements in overall muscle coordination
distance travelled in 30 mins (treadmill) ([7]; FIG. 4A): significant and sustained improvement
time to exhaust (treadmill) ([7]; FIG. 4B): significant and sustained improvement

CC#CCn1c(N2CCC[C@@H](N)C2)nc2c1c(=O)n(Cc1nc(C)c3ccccc3n1)c(=O)n2C [Linagliptin, 8-[(3R)-3-Aminopiperidin-1-yl]-7-(but-2-yn-1-yl)-3-methyl-1-[(4-methylquinazolin-2-yl)methyl]-3,7-dihydro-1H-purine-2,6-dione]
fold change of utrophin [1]: capable of upregulating utrophin levels

Cc1cc(N2CCN([C@@H]3CN[C@H](C(=O)N4CCSC4)C3)CC2)n(-c2ccccc2)n1 [Teneligliptin, {(2S,4S)-4-[4-(3-Methyl-1-phenyl-1H-pyrazol-5-yl)-1-piperazinyl]-2-pyrrolidinyl}(1,3-thiazolidin-3-yl)methanone]
fold change of utrophin [1]: capable of upregulating utrophin levels
